From patent US20250230155A1 (Vanderbilt University, priority 2021, published 2025) come the findings set out here.

SMILES strings stand for the structures. pEC50: −log10 of the molar value.

This assay concerns the target T1, human mAChR M4 (Homo sapiens, UniProt P08173).
T1 construct: expressed in transfected cells
T1 sequence (P08173 1-479): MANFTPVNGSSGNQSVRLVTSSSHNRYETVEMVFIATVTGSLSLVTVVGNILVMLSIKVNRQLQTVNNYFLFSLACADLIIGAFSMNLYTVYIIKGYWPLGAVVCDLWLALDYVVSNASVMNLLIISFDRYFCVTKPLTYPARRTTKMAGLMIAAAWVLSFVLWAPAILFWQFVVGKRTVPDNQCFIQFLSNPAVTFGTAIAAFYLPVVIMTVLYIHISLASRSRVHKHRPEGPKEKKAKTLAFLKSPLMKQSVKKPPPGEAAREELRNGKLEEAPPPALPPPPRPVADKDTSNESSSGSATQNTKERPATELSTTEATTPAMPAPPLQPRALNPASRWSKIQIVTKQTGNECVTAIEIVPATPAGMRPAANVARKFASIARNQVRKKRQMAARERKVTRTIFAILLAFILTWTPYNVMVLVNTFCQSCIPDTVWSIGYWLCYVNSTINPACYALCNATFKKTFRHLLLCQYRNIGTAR
The assay is described as follows: mAChR M4 cell-based functional assay (calcium mobilization, CHO-K1 hM4-Gqi5 cells). Particulars: for Emax at 30 µM: CHO-K1, % ACh maximum at 30 μM, human M4; for pEC50: positive allosteric modulator activity, increase in the EC20 acetylcholine response, CHO-K1 hM4-Gqi5 cells, read-out: Human M4 EC50. The essentials:
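CHO-K1 cells stably expressing human M4 with chimeric Gqi5, loaded with Fluo-4 AM; compounds given as 11-point 1:3 curves and calcium flux read on FDSS at 1 Hz. Acetylcholine EC20 added at 144 s, EC80 at 230 s; agonist, PAM (EC20 potentiation) and antagonist (EC80 inhibition) EC50/Emax from four-parameter fits.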

Broadly, the Emax is the maximal effect, on the per cent scale that the assay sets. As a reminder, the pEC50 is the EC50 on a negative log10 scale, so that one unit is a factor of ten. Take `Cc1cnc2c(c1)CN(c1nnc(C(=O)NCc3cnc4ccccc4c3)c(C)c1C)CC2` [Example 471, 4,5-dimethyl-6-(3-methyl-7,8-dihydro-1,6-naphthyridin-6(5H)-yl)-N-(quinolin-3-ylmethyl)pyridazine-3-carboxamide]: the maximal effect (Emax) at 30 µM was 91% and the pEC50 is 6.60.
Taken in the same sequence, the figures for `Cc1cc(C(=O)NCc2cn3ccccc3n2)cnc1N1CCc2ncccc2C1` [compound 120] were 64% and 5.57.
Regarding `Cc1c(C#N)nnc(N2CCc3ncc(N4CCO[C@@H](c5ccccc5)C4)cc3C2)c1C` [Example 379, (S)-4,5-dimethyl-6-(3-(2-phenylmorpholino)-7,8-dihydro-1,6-naphthyridin-6(5H)-yl)pyridazine-3-carbonitrile], the Emax at 30 µM is 47% and the pEC50 was 5.44.
Consider `Cc1cc(C(=O)NCc2cncs2)nnc1N1CCc2ncc(C(F)(F)F)cc2C1` [Example 492, 5-methyl-N-(thiazol-5-ylmethyl)-6-(3-(trifluoromethyl)-7,8-dihydro-1,6-naphthyridin-6(5H)-yl)pyridazine-3-carboxamide], for which the maximum response (Emax) at 30 µM stood at 110% and the pEC50 was 7.77.
Turning to `Cc1cc(C(=O)N2CC(F)C2)nnc1N1CCc2ncc(Nc3ccnn3C)cc2C1` [Example 559, (3-fluoroazetidin-1-yl)(5-methyl-6-(3-((1-methyl-1H-pyrazol-5-yl)amino)-7,8-dihydro-1,6-naphthyridin-6(5H)-yl)pyridazin-3-yl)methanone], the Emax at 30 µM is 73% and the negative-log EC50 (pEC50) was 7.19.
For `Cc1cc(F)ncc1-c1cnc2c(c1)CN(c1nnc(C#N)c(C)c1C)CC2` [Example 320, 6-(3-(6-fluoro-4-methylpyridin-3-yl)-7,8-dihydro-1,6-naphthyridin-6(5H)-yl)-4,5-dimethylpyridazine-3-carbonitrile], the Emax at 30 µM came to 54% and the negative logarithm of the EC50 (pEC50) is 5.57.
Taken in the same sequence, the figures for `Cc1cc(C(=O)NC23CC(F)(C2)C3)cnc1N1CCc2ncc(-c3cn(C)nc3C)cc2C1` [Example 477, 6-(3-(1,3-dimethyl-1H-pyrazol-4-yl)-7,8-dihydro-1,6-naphthyridin-6(5H)-yl)-N-(3-fluorobicyclo[1.1.1]pentan-1-yl)-5-methylnicotinamide] were 80% and 5.61.
In the case of `Cc1cc(C(=O)NC23CC(F)(C2)C3)cnc1N1CCc2ncccc2C1` [compound 124, 6-(7,8-dihydro-5H-1,6-naphthyridin-6-yl)-N-(3-fluoro-1-bicyclo[1.1.1]pentanyl)-5-methyl-pyridine-3-carboxamide], the maximal response (Emax) at 30 µM stood at 78% and the negative-log EC50 (pEC50) is 5.66.
On the same counts, the results for `Cc1cc(F)ncc1-c1cnc2c(c1)CN(c1nnc(C#N)cc1C)CC2` [Example 593, 6-(3-(6-fluoro-4-methylpyridin-3-yl)-7,8-dihydro-1,6-naphthyridin-6(5H)-yl)-5-methylpyridazine-3-carbonitrile] are 70% and 6.06.
Taken in the same sequence, the figures for `Cc1cc(C(=O)NCc2ccc(C(F)(F)F)cn2)cnc1N1CCc2ncccc2C1` [compound 144, 6-(7,8-dihydro-5H-1,6-naphthyridin-6-yl)-5-methyl-N-[[5-(trifluoromethyl)-2-pyridyl]methyl]pyridine-3-carboxamide] were 61% and 5.22.
Taken in the same sequence, the figures for `Cc1ccc(-c2cnc3c(c2)CN(c2nnc(C#N)c(C)c2C)CC3)cn1` [Example 298, 4,5-dimethyl-6-(3-(6-methylpyridin-3-yl)-7,8-dihydro-1,6-naphthyridin-6(5H)-yl)pyridazine-3-carbonitrile] were 93% and 6.28.
Turning to `Cc1ccccc1Nc1cnc2c(c1)CN(c1nnc(C#N)c(C)c1C)CC2` [compound 42, 4,5-dimethyl-6-[3-(2-methylanilino)-7,8-dihydro-5H-1,6-naphthyridin-6-yl]pyridazine-3-carbonitrile], the Emax at 30 µM turned out to be 80% and the pEC50 was 6.32.
On the same counts, the results for `Cc1cc(C(=O)N(C)Cc2ccncc2)nnc1N1CCc2ncc(C(F)(F)F)cc2C1` [Example 506, N,5-dimethyl-N-(pyridin-4-ylmethyl)-6-(3-(trifluoromethyl)-7,8-dihydro-1,6-naphthyridin-6(5H)-yl)pyridazine-3-carboxamide] are 84% and 5.55.
As for `Cc1cc(C(=O)N2CCC2)nnc1N1CCc2ncc(-n3cccn3)cc2C1` [Example 531, (6-(3-(1H-pyrazol-1-yl)-7,8-dihydro-1,6-naphthyridin-6(5H)-yl)-5-methylpyridazin-3-yl)(azetidin-1-yl)methanone], the Emax at 30 µM stood at 83% and the pEC50 is 6.62.
On the same counts, the results for `Cc1cc(C#N)cnc1N1CCc2ncc(N3CC(C)Cn4nccc43)cc2C1` (centres unmarked) [Example 384, 5-methyl-6-(3-(6-methyl-6,7-dihydropyrazolo[1,5-a]pyrimidin-4(5H)-yl)-7,8-dihydro-1,6-naphthyridin-6(5H)-yl)nicotinonitrile] are 100% and 6.73.
For `Cc1c(C#N)nnc(N2CCc3ncc(-c4cnn(CCN5CCOCC5)c4)cc3C2)c1C` [Example 325, 4,5-dimethyl-6-(3-(1-(2-morpholinoethyl)-1H-pyrazol-4-yl)-7,8-dihydro-1,6-naphthyridin-6(5H)-yl)pyridazine-3-carbonitrile], the maximal effect (Emax) at 30 µM is 51% and the negative logarithm of the EC50 (pEC50) is 5.53.
On the same counts, the results for `Cc1cc(C(=O)N2CC(C(F)F)C2)nnc1N1CCc2ncc(Nc3ccnn3C)cc2C1` [Example 558, (3-(difluoromethyl)azetidin-1-yl)(5-methyl-6-(3-((1-methyl-1H-pyrazol-5-yl)amino)-7,8-dihydro-1,6-naphthyridin-6(5H)-yl)pyridazin-3-yl)methanone] are 90% and 7.00.
On the same counts, the results for `Cc1cc(C(=O)N2CC3(C2)CC(F)(F)C3)nnc1N1CCc2ncc(N3CCO[C@H](C)C3)cc2C1` [Example 574, (R)-(6,6-difluoro-2-azaspiro[3.3]heptan-2-yl)(5-methyl-6-(3-(2-methylmorpholino)-7,8-dihydro-1,6-naphthyridin-6(5H)-yl)pyridazin-3-yl)methanone] are 81% and 6.71.
On to `Cc1cc(C(=O)N2CC(C)(F)C2)nnc1N1CCc2ncc(N3CCO[C@H](C)C3)cc2C1` [Example 573, (R)-(3-fluoro-3-methylazetidin-1-yl)(5-methyl-6-(3-(2-methylmorpholino)-7,8-dihydro-1,6-naphthyridin-6(5H)-yl)pyridazin-3-yl)methanone], for which the Emax at 30 µM stood at 89% and the negative logarithm of the EC50 (pEC50) is 7.00.
Take `Cc1cc(C#N)nnc1N1CCc2ncc(N3CCC(C)n4nccc43)cc2C1` (centres unmarked) [Example 383, 5-methyl-6-(3-(7-methyl-6,7-dihydropyrazolo[1,5-a]pyrimidin-4(5H)-yl)-7,8-dihydro-1,6-naphthyridin-6(5H)-yl)pyridazine-3-carbonitrile]: the Emax at 30 µM was 97% and the pEC50 is 6.77.
Taken in the same sequence, the figures for `Cc1c(C#N)nnc(N2CCc3ncc(-c4ccc(N5CC6(COC6)C5)nc4)cc3C2)c1C` [Example 332, 6-(3-(6-(2-oxa-6-azaspiro[3.3]heptan-6-yl)pyridin-3-yl)-7,8-dihydro-1,6-naphthyridin-6(5H)-yl)-4,5-dimethylpyridazine-3-carbonitrile] were 83% and 6.08.
With `Cc1cc(C(=O)N2CCCC2)nnc1N1CCc2ncc(N3CCCn4nccc43)cc2C1` [Example 488, (6-(3-(6,7-dihydropyrazolo[1,5-a]pyrimidin-4(5H)-yl)-7,8-dihydro-1,6-naphthyridin-6(5H)-yl)-5-methylpyridazin-3-yl)(pyrrolidin-1-yl)methanone], the Emax at 30 µM was 89% and the pEC50 is 6.66.
Consider `Cc1c(C#N)nnc(N2CCc3ncc(-c4cccnc4)cc3C2)c1C` [compound 47, 4,5-dimethyl-6-[3-(3-pyridyl)-7,8-dihydro-5H-1,6-naphthyridin-6-yl]pyridazine-3-carbonitrile], for which the maximum response (Emax) at 30 µM was 81% and the pEC50 was 6.87.
On the same counts, the results for `Cc1cnccc1CNC(=O)c1nnc(N2CCc3ncc(C(F)(F)F)cc3C2)c(C)c1C` [Example 464, 4,5-dimethyl-N-((3-methylpyridin-4-yl)methyl)-6-(3-(trifluoromethyl)-7,8-dihydro-1,6-naphthyridin-6(5H)-yl)pyridazine-3-carboxamide] are 101% and 7.44.
As for `Cc1cc(C(=O)N2Cc3cccnc3C2)nnc1N1CCc2ncc(N3CCCn4nccc43)cc2C1` [Example 513, (5,7-dihydro-6H-pyrrolo[3,4-b]pyridin-6-yl)(6-(3-(6,7-dihydropyrazolo[1,5-a]pyrimidin-4(5H)-yl)-7,8-dihydro-1,6-naphthyridin-6(5H)-yl)-5-methylpyridazin-3-yl)methanone], the maximum response (Emax) at 30 µM worked out at 90% and the pEC50 was 7.29.
